Reference: the NIST ThermoML archive (doi:10.1021/je900550v)

Settings: 101.33 kPa, Liquid; for speed of sound: Pulse-echo method; for mass density: Vibrating tube method

CCCCC(=O)[O-].C[NH2+]CCO [2-hydroxy-N-methylethanaminium pentanoate]
Settings	mass density [kg/m3]	speed of sound [m/s]	viscosity [mPa·s]
308.15 K	1009.51	1517.6	133.08
308.4 K	1009.34	1516.8	–
308.65 K	1009.18	1516.1	–
308.9 K	1009.01	1515.3	–
309.15 K	1008.84	1514.5	–
309.4 K	1008.67	1513.8	–
309.65 K	1008.5	1513	–
309.9 K	1008.33	1512.2	–
310.15 K	1008.16	1511.4	117.28
310.4 K	1007.99	1510.7	–
310.65 K	1007.82	1509.9	–
310.91 K	1007.65	1509.1	–
311.16 K	1007.48	1508.3	–
311.4 K	1007.31	1507.6	–
311.65 K	1007.14	1506.8	–
311.91 K	1006.97	1506	–
312.16 K	1006.8	1505.3	–
312.41 K	1006.63	1504.5	–
312.66 K	1006.46	1503.7	–
312.91 K	1006.29	1503	–
313.15 K	–	–	102.38
313.16 K	1006.12	1502.2	–
313.4 K	1005.95	1501.4	–
313.66 K	1005.78	1500.7	–
313.9 K	1005.61	1499.9	–
314.15 K	1005.44	1499.1	–
314.4 K	1005.27	1498.3	–
314.65 K	1005.09	1497.6	–
314.9 K	1004.92	1496.8	–
315.15 K	1004.75	1496	91.92
315.41 K	1004.58	1495.3	–
315.65 K	1004.4	1494.5	–
315.91 K	1004.24	1493.8	–
316.16 K	1004.07	1493	–
316.41 K	1003.89	1492.2	–
316.66 K	1003.72	1491.5	–
316.91 K	1003.55	1490.7	–
317.16 K	1003.38	1489.9	–
317.4 K	1003.21	1489.2	–
317.66 K	1003.04	1488.4	–
317.91 K	1002.86	1487.6	–
318.15 K	–	–	80.38
318.16 K	1002.69	1486.9	–
318.41 K	1002.52	1486.1	–
318.65 K	1002.35	1485.3	–
318.9 K	1002.18	1484.6	–
319.16 K	1002	1483.8	–
319.41 K	1001.83	1483.1	–
319.65 K	1001.66	1482.3	–
319.91 K	1001.49	1481.5	–
320.16 K	1001.32	1480.8	–
320.41 K	1001.14	1480	–
320.65 K	1000.97	1479.2	70.74
320.91 K	1000.8	1478.5	–
321.15 K	1000.62	1477.7	–
321.41 K	1000.45	1476.9	–
321.66 K	1000.28	1476.1	–
321.9 K	1000.1	1475.4	–
322.15 K	999.932	1474.6	–
322.41 K	999.756	1473.8	–
322.65 K	999.586	1473.1	–
322.91 K	999.412	1472.3	–
323.15 K	–	–	66.02
323.16 K	999.237	1471.6	–
323.41 K	999.06	1470.8	–
323.65 K	998.891	1470	–
323.91 K	998.715	1469.2	–
324.16 K	998.543	1468.5	–
324.41 K	998.367	1467.7	–
324.65 K	998.196	1467	–
324.9 K	998.022	1466.2	–
325.16 K	997.846	1465.4	–
325.4 K	997.672	1464.7	–
325.66 K	997.495	1463.9	–
325.9 K	997.325	1463.1	–
326.16 K	997.148	1462.4	–
326.41 K	996.977	1461.6	–
326.66 K	996.8	1460.8	–
326.9 K	996.626	1460.1	–
327.16 K	996.452	1459.3	–
327.4 K	996.278	1458.5	–
327.66 K	996.103	1457.8	–
327.9 K	995.927	1457	–
328.15 K	995.753	1456.2	–
328.41 K	995.577	1455.5	–
328.66 K	995.401	1454.7	–
328.9 K	995.229	1453.9	–
329.16 K	995.05	1453.2	–
329.4 K	994.879	1452.4	–
329.65 K	994.701	1451.6	–
329.9 K	994.528	1450.8	–
330.16 K	994.354	1450.1	–
330.41 K	994.177	1449.3	–
330.66 K	993.999	1448.5	–
330.91 K	993.824	1447.8	–
331.16 K	993.649	1447	–
331.41 K	993.472	1446.2	–
331.66 K	993.296	1445.5	–
331.91 K	993.121	1444.7	–
332.16 K	992.945	1443.9	–
332.41 K	992.768	1443.2	–
332.66 K	992.592	1442.4	–
332.91 K	992.415	1441.6	–
333.16 K	992.239	1440.8	–
333.41 K	992.064	1440.1	–
333.66 K	991.886	1439.3	–
333.91 K	991.71	1438.5	–
334.16 K	991.536	1437.8	–
334.41 K	991.358	1437	–
334.66 K	991.18	1436.2	–
334.91 K	991.004	1435.5	–
335.16 K	990.827	1434.7	–
335.41 K	990.651	1434	–
335.66 K	990.472	1433.2	–
335.91 K	990.295	1432.4	–
336.16 K	990.117	1431.7	–
336.41 K	989.938	1430.9	–
336.66 K	989.761	1430.1	–
336.9 K	989.584	1429.3	–
337.16 K	989.407	1428.6	–
337.4 K	989.229	1427.8	–
337.66 K	989.051	1427	–
337.9 K	988.872	1426.3	–
338.15 K	988.703	1425.6	–
